Patent EP1227090A1, “AMINE DERIVATIVES” (Tadeka Chemical Industries, Ltd., priority 1999, dated 2001)

Legend:
Settings in all cases: 125I-somatostatin-14 binding inhibition, CHO cell membrane fraction, 25°C for 60 minutes, Hill plots
[1] = molecular target: T1, human somatostatin receptor protein subtype 3 (SSTR3) (Homo sapiens, UniProt P32745); assay: Measurement of the binding inhibition rate of 125I-Somatostatin (SSTR3)
T1 construct: expressed in transfected cells; host or cells: CHO (dhfr-) cells, strain SSTR3-15-19, plasmid pA1-11-SSTR3 (pAKKO-111 vector); membrane fraction
Protocol: 1 x 10^6 CHO (dhfr^-) cells were cultured for 24 hours in HAM F12 medium containing 10% bovine fetal serum on a laboratory dish of 8 cm in diameter. The cells were transfected by 10 µg of the human SSTR3 DNA expression plasmid, pA-1-11-SSTR3, obtained under the above (5) using the calcium phosphate method. The medium was switched to DMEM medium containing 10% dialyzed bovine fetal serum 24 hours after the transfection to select the colony-forming cells (i.e. DHFR^+ cells) in this medium. Further, the selected cells were cloned from a single cell by the limiting dilution method and the somatostatin receptor protein expression activity of these cells was measured by the binding assay mentioned under the above (3). Thus, a highly somatostatin-binding cell strain, SSTR3-15-19, was selected.
(§1) Measurement of the binding inhibition rate of ^125I-Somatostatin
(§2) The receptor binding inhibition rate (%) of the subject compound was calculated using each of the membrane fractions prepared in Experimental Examples 1 and 2.
(§3) The membrane fraction was diluted with a buffer solution for assay to adjust the concentration to 3 µg/ml. The diluate was placed in tubes each in quantity of 173 µl. To this were simultaneously added 2 µl of a solution of a subject compound in DMSO and 25 µl of a 200 pM radioisotope-labeled somatostatin-14 (^125I-somatostatin-14: Amersham). For measurement of the maximum binding, a reaction mixture added with 2 µl of DMSO and 25 µl of a 200 pM ^125I-somatostatin was prepared. For measurement of non-specific binding, a reaction mixture added with 2 µl of a 100 µM somatostatin solution in DMSO and 25 µl of a 200 pM ^125I-somatostatin solution was prepared at the same time. The mixtures were allowed to react at 25°C for 60 minutes. Then, the reaction mixture was filtered by aspiration using a Whatman glass filter (GF-B) treated with polyethylenimine. After filtration, the radioactivity of ^125I-somatostatin-14 remaining on the filter paper was measured by a γ-counter. The binding inhibition rate (%) of each subject compound was calculated by the following formula: (TB-SB)/(TB-NSB) x 100 [formula] SB: radioactivity when a compound was added TB: maximum binding radioactivity NSB: non-specific binding radioactivity
(§4) The binding inhibition rates were measured by changing the concentrations of the subject compound, and the 50% inhibiting concentration of the subject compound (IC50 value) was calculated by the Hill plots.

[2] = molecular target: T2, human somatostatin receptor protein subtype 2 (SSTR2) (Homo sapiens, UniProt P30874); assay: Measurement of the binding inhibition rate of 125I-Somatostatin (SSTR2)
T2 construct: expressed in transfected cells; host or cells: CHO (dhfr-) cells, strain SSTR2-HS5-9, plasmid pAC01 (pAKKO-111 vector); membrane fraction
Protocol: 1 x 10^6 CHO (dhfr^-) cells were cultured for 24 hours in HAM F12 medium containing 10% bovine fetal serum on a laboratory dish of 8 cm in diameter. To the cells was transfected 10 µg of the human SSTR2 cDNA expression plasmid, pA-C01, obtained under the above (5) by the calcium phosphate method (Cell Phect Transfection Kit: Pharmacia). The medium was switched to DMEM medium containing 10% dialyzed bovine fetal serum 24 hours after the transfection to select the colony-forming cells (i.e. DHFR^+ cells) in this medium. Further, the selected cells were cloned from a single cell by the limiting dilution method and a cell strain which highly expresses human SSTR2, SSTR2-HS5-9, was selected.
as §1, §2, §3, §4

[3] = molecular target: T3, human somatostatin receptor protein subtype 5 (SSTR5) (Homo sapiens, UniProt P35346); assay: Measurement of the binding inhibition rate of 125I-Somatostatin (SSTR5)
T3 construct: expressed in transfected cells; host or cells: CHO (dhfr-) cells, strain SSTR5-32-4, plasmid pA1-11-SSTR5 (pAKKO-111 vector); membrane fraction
Protocol: 1 x 10^6 CHO (dhfr^-) cells were cultured for 24 hours in HAM F12 medium containing 10% bovine fetal serum on a laboratory dish of 8 cm in diameter. To the cells was transfected 10 µg of the human SSTR5 cDNA expression plasmid, pA-1-11-SSTR5, obtained under the above (11) by the calcium phosphate method. The medium was switched to DMEM medium containing 10% dialyzed bovine fetal serum 24 hours after the transfection to select the colony-forming cells (i.e. DHFR^+ cells) in this medium. Further, the selected cells were cloned from a single cell by the limiting dilution method and the somatostatin receptor protein expression activity of these cells was measured by binding assay mentioned under the above (3). Thus, a highly somatostatin-biding cell strain, SSTR5-32-4, was selected.
as §1, §2, §3, §4

T1 sequence (P32745 whole entry): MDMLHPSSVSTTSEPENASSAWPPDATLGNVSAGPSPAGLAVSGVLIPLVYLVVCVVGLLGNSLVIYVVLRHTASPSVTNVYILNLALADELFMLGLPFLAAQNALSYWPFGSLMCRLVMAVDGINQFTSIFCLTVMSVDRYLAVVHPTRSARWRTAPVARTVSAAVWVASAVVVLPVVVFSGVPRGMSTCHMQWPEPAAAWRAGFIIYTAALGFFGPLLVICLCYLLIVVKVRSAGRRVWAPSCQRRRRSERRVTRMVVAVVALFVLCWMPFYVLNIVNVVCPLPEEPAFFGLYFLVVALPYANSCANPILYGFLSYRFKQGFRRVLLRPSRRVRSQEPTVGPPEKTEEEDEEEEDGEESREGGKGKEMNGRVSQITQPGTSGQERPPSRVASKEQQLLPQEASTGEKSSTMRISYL
T3 sequence (P35346 whole entry): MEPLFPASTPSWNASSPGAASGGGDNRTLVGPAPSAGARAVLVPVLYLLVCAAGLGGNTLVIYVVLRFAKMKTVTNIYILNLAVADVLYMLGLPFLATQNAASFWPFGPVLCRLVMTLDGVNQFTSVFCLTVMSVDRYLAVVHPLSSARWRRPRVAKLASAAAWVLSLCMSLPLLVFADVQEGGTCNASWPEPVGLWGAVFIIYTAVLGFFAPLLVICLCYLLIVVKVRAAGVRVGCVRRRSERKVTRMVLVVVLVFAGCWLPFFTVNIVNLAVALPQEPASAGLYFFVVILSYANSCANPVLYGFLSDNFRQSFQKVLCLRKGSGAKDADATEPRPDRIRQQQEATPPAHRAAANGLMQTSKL
T2 sequence (P30874 whole entry): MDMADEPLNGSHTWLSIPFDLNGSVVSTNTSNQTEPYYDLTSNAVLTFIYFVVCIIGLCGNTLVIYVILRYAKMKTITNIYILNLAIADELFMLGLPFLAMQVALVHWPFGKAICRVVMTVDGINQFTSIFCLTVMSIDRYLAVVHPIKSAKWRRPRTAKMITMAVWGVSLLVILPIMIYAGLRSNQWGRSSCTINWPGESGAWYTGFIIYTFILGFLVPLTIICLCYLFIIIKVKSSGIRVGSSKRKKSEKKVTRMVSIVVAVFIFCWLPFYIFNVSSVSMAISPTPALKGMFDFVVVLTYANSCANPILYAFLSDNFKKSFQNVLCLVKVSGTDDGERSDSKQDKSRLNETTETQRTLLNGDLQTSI

Row | SMILES | IC50 [1] | IC50 [2] | IC50 [3]
1 | CN(C)CC1Cc2cc(Cl)ccc2N(C(=O)[C@@H](Cc2c[nH]c3ccccc23)NC(=O)C2CCN(C(=O)c3cc4ccccc4[nH]3)CC2)C1 (stereo partly drawn) [Example 14, N-[(1R)-2-[6-chloro-3-(R,S)-[(dimethylamino)methyl]-1,2,3,4-tetrahydro-1-quinolinyl]-1-(1-indol-3-ylmethyl)-2-oxoethyl]-1-(1-indol-2-ylcarbonyl)-4-piperidinecarboxamide] | 70 nM | 0.6 nM | 300 nM
2 | CN(C)C[C@H]1Cc2cc(Cl)ccc2N(C(=O)[C@@H](Cc2c[nH]c3ccccc23)NC(=O)CCC2CCN(C(=O)c3ccccc3)CC2)C1 [Example 31, 3-(1-benzoyl-4-piperidinyl)-N-[(1R)-2-[(3R)-6-chloro-3-[(dimethylamino)methyl]-1,2,3,4-tetrahydro-1-quinolinyl]-1-(1-indol-3-ylmethyl)-2-oxoethyl]propanamide] | 60 nM | 2 nM | 300 nM
3 | CN(C)C[C@H]1Cc2cc(Cl)ccc2N(C(=O)[C@@H](Cc2c[nH]c3ccccc23)NC(=O)C2CCN(C(=O)c3cc4ccccc4n3C)CC2)C1 [Example 51, N-[(1R)-2-[(3R)-6-chloro-3-[(dimethylamino)-methyl]-1,2,3,4-tetrahydro-1-quinolinyl]-1-(1-indol-3-ylmethyl)-2-oxoethyl]-1-(1-methylindol-2-ylcarbonyl)-4-piperidinecarboxamide] | 80 nM | 0.3 nM | 400 nM
4 | CN(C)C[C@H]1Cc2cc(Cl)ccc2N(C(=O)[C@@H](Cc2c[nH]c3ccccc23)NC(=O)N2CCC(C(=O)c3ccc(Cl)cc3)CC2)C1 [Example 130, 4-(4-chlorobenzoyl)-N-[(1R)-2-[(3R)-6-chloro-3-[(dimethylamino)methyl]-1,2,3,4-tetrahydro-1-quinolinyl]-1-(1-indol-3-ylmethyl)-2-oxoethyl]-1-piperidinecarboxamide] | 40 nM | 2 nM | 400 nM
5 | CN(C)C[C@H]1Cc2cc(Cl)ccc2N(C(=O)[C@@H](Cc2c[nH]c3ccccc23)NC(=O)N2CCC(Oc3ccccc3)CC2)C1 [Example 145-2, N-[(1R)-2-[(3R)-6-chloro-3-[(dimethylamino)methyl]-1,2,3,4-tetrahydro-1-quinolinyl]-1-(1H-indol-3-ylmethyl)-2-oxoethyl]-4-phenoxyl-1-piperidinecarboxamide] | 10 nM | 1 nM | 200 nM
